Measured values from a melting point compilation (Tetko et al.; mined from patent text by program, amines drawn as free bases though some values may be those of a salt).

First: O=C(O)[C@H](CS)N(Sc1nc2cc(Cl)ccc2s1)C(=O)Cc1ccccc1
Second: CCC(=O)Nc1ccc(OCc2nc3ccccc3s2)cc1
The melting point of the first is lower: 155 to 158 °C for the first, 182 °C for the second.

Compared with `O=C1C(=O)N(Cc2ccc(Br)cc2F)c2c(Cl)cccc21`, `O=C(O)Cc1cccc2c1N=C(c1ccccc1F)CC2=O` is higher in melting point: 164 to 166 °C for the first, 243 to 245 °C for the second.

First: O=C(Cl)c1c(-c2ccccc2)nn2c1-c1ccccc1CC2
Second: O=C(O)Cn1c(-c2ccccc2Cl)nc2cccnc21
The melting point of the first is lower: 109 to 110 °C for the first, 227 to 228 °C for the second.

First: CC(=O)N1CCN(c2cncc(Cl)n2)CC1
Second: CC(=O)N1CCC(COC2c3ccccc3C(=O)N2c2ccc3ccc(Cl)nc3n2)CC1 (configuration not stated)
The melting point of the first is lower: 106 to 108 °C for the first, 160 °C for the second.

First: CC(C)n1nc(-c2sc(C(=O)N3CCOCC3)nc2-c2ccccc2)ccc1=O
Second: CC(C)n1nc(-c2sc(C(=O)NCc3ccncc3)nc2-c2ccc(F)cc2)ccc1=O
The melting point of the first is higher: 162 °C for the first, 155 to 157 °C for the second.

Compared with `CCCCc1nc2c(N)nc3ccc(O)cc3c2n1CCCCNS(C)(=O)=O`, `CCOCc1nc2c(N)nc3ccccc3c2n1CCNC(=O)CCCCC1SCC2NC(=O)NC21` (configuration not stated) is lower in melting point: 223 to 227 °C for the first, 171 to 175 °C for the second.

Compared with `CC1(C)OC(=C(C#N)C#N)C(C#N)=C1c1ccc(N=[N+]=[N-])cc1`, `COc1ccc(-c2cc(C)c3occc3c2)cc1` is lower in melting point: 184 °C for the first, 82 to 83 °C for the second.

Compared with `Cc1c(C2=CCC(Cc3ccccc3)(N(C)C)CC2)[nH]c2ccc(C#N)cc12` (configuration not stated), `N#Cc1cccc(-c2ccc3c(c2)C2(CCCC2)C(=O)N3)c1` is higher in melting point: 120 to 123 °C for the first, 217 to 219 °C for the second.

First: COC(=O)[C@H]1CC[C@H](NC(=O)c2cc(-c3ccc(C(=N)N)cc3)nn(Cc3ccccc3)c2=O)CC1
Second: CCCCc1ccc(OC)c(-c2csc(NC(=O)c3ccc(C(=O)N4CCC(N5CCC(NS(C)(=O)=O)C5)CC4)cc3)n2)c1 (configuration not stated)
The melting point of the first is higher: 168 to 173 °C for the first, 125 °C for the second.

Compared with `O=C(CC1(c2ccccc2)CCC1)C(=O)Nc1ccc2c(c1)COC2=O`, `CN(C)C1(c2ccccc2)CCC(CNC(=O)Oc2ccccc2)CC1` (configuration not stated) is lower in melting point: 142 to 146 °C for the first, 108 to 124 °C for the second.

First: CN1Cc2c(-c3nc(CCl)co3)ncn2-c2ccsc2C1=O
Second: CCN(CC)CCOc1ccc(Nc2ncc3c(n2)N(C)C(=O)N(c2ccccc2Cl)C3)cc1
The melting point of the first is higher: 200 to 206 °C for the first, 150 to 151 °C for the second.

First: O=C(O)C1CCc2ccc([N+](=O)[O-])cc21 (configuration not stated)
Second: Cc1ccccc1-n1c(CF)nc2ccc([N+](=O)[O-])cc2c1=O
The melting point of the first is lower: 92 to 94 °C for the first, 155 to 158 °C for the second.

First: CCCc1nccn1Cc1ccc2c(c1)Cc1c(-c3ccsc3)n[nH]c1-2
Second: O=C1C(=Cc2ccccc2)CCc2cc(OCCc3c[nH]cn3)ccc21
The melting point of the first is higher: 113 to 117 °C for the first, 53 to 56 °C for the second.

First: COc1cc2c(c(Cl)c1Cl)C1=CC(=O)CCC1(CCCCl)C2 (configuration not stated)
Second: COc1ccc(C2=NN(C3CCN(C(=O)c4ccccc4OC)CC3)C(=O)C(C)(C)C2)cc1OC
The melting point of the first is higher: 183 to 185 °C for the first, 157 to 159 °C for the second.

Compared with `Cc1[nH]cnc1CSCCO`, `Cc1[nH]c(C=O)c(C)c1CCO` is higher in melting point: 74 to 76 °C for the first, 125 to 127 °C for the second.

First: Cc1cccc(C2(O)CCC(=O)N2C)c1 (configuration not stated)
Second: O=C1CNCC2c3ccccc3CCN12 (configuration not stated)
The melting point of the first is higher: 128 to 130 °C for the first, 119 to 120 °C for the second.

Compared with `COC(=O)c1ccc(NC(=O)C(CC2CCCC2)c2ccc(F)c(C(F)(F)F)c2)nc1` (configuration not stated), `CC1(CNCc2cc3cc(NC(=O)c4ccc(OCC5CC5)cc4)ccc3[nH]2)COC1` is lower in melting point: 270 to 275 °C for the first, 166 to 167 °C for the second.

First: C=C1c2ccccc2C(n2cncc2C(=O)OC)C1(C)C (configuration not stated)
Second: COc1ccccc1NC(C)C(=O)O (configuration not stated)
The melting point of the first is lower: 125 to 126 °C for the first, 205 to 208 °C for the second.

First: CCOC(=O)C(CC)Cc1ccc(N2C(=O)c3ccccc3C2=O)cc1 (configuration not stated)
Second: CCCNC(=S)Nc1ccnc(CCCCCN2C(=O)c3ccccc3C2=O)n1
The melting point of the first is lower: 86 to 87 °C for the first, 146 to 149 °C for the second.

Compared with `COc1ccc2c(c1)c(-c1ccccc1)nc(=S)n2CC1CC1`, `COc1ccc(-c2nnn(-c3ccc(F)cc3Cl)c2N)cc1` is lower in melting point: 180 to 181 °C for the first, 136 to 141 °C for the second.

Going from `CC(O)c1ccccc1-c1ccc(C(=O)N2Cc3ccc(C(=O)NCc4cccnc4)n3Cc3ccccc32)cc1` (single isomer, unassigned; (-)) to `CC(=O)Nc1ccc(-c2cc(C(=O)c3cccnc3)sc2N2CCOCC2)cc1`, the melting point rises from 118 °C to 144 °C.

First: CC(C)C[C@H](OC(=O)N1CCCCCC1)C(=O)O
Second: CC(C)CC(NC(=O)C1CCCN1C(=O)OCc1ccccc1)OCC(=O)O (configuration not stated)
The melting point of the first is lower: 86 to 88 °C for the first, 118 to 120 °C for the second.

First: CCN1C(=O)CC2(CNC(=O)C2)C1=O (configuration not stated)
Second: Cn1c2c(c3cccc(F)c31)C(=O)NCCC2
The melting point of the first is lower: 168 to 169 °C for the first, 233 to 235 °C for the second.

First: COC(=O)/C=C/C(=O)OCC(=O)N1CCOCC1
Second: CCc1[nH]n(C2CCCC2)c2nc(-c3cccc(OCC(=O)N4CCOCC4)c3)nc(=O)c1-2
The melting point of the first is lower: 124 to 126 °C for the first, 212 to 213 °C for the second.

Compared with `NC(=O)c1ccc(C=CC(=O)N2CCc3c([nH]c4ccccc34)C2c2ccc3c(c2)OCO3)cc1` (configuration not stated), `O=C(O)c1ccc2nc3n(c(=O)c2c1)CCCC3=Cc1ccccc1` is higher in melting point: 183 °C for the first, 288 to 290 °C for the second.

First: CC1CCC2(C)C(=CCC3C4CC(O)C(=O)C4(C)CCC32)C1 (configuration not stated)
Second: CC(C)CCCC(C)C1CCC2C3CC=C4CC(OCCCCCCI)CCC4(C)C3CCC12C (configuration not stated)
The melting point of the first is higher: 166 to 168 °C for the first, 104 °C for the second.

First: N[C@@H]1CCc2c(ccc(OCc3ccccc3)c2CO)[C@H]1O (relative stereo)
Second: CNc1cc(CO)cc(S(N)(=O)=O)c1Oc1ccccc1
The melting point of the first is lower: 148 to 150 °C for the first, 167 to 168 °C for the second.

First: Nc1nc(N)c2c(ccc3c2ccn3Cc2ccc(Cl)cc2Cl)n1
Second: O=C(Nc1ccc(Oc2cccc3c2CCC3=O)nc1)c1ccc(Cl)c(Cl)c1
The melting point of the first is higher: 249 to 250 °C for the first, 202 to 204 °C for the second.

First: CN(Cc1ccco1)Cn1c(Cl)c(C#N)c(-c2cccc(Cl)c2F)c1-c1ccccc1
Second: CCc1cc2c(s1)-n1c(Cl)nnc1CN=C2c1ccccc1Cl
The melting point of the first is lower: 63 to 64 °C for the first, 133 to 135 °C for the second.

First: OCc1ccc2cnn(-c3ccnc(N[C@H]4CC[C@H](O)CC4)n3)c2c1
Second: CNc1nc(C2C(=O)Nc3ccc(C(F)(F)F)cc32)c2cn(C3CCCC3)nc2n1 (configuration not stated)
The melting point of the first is lower: 216 to 218 °C for the first, > 300 °C for the second.

First: Cc1nc2ccc3ccc(CNc4ccc5c(c4)CN([C@@H](CCC(=O)O)C(=O)N[C@@H](Cc4ccccc4)C(=O)O)C5=O)cc3c2c(=O)[nH]1
Second: Cc1ccc(CC(CS)C(=O)Nc2cccc(C(=O)O)c2)cc1 (configuration not stated)
The melting point of the first is lower: 180 °C for the first, 188 to 190 °C for the second.

Compared with `CC(C)(C)OC(=O)NCC(=O)c1cccnc1`, `CCCCOC(=O)NCc1cccc(C(=O)C=CN(C)C)c1` is lower in melting point: 98 to 99 °C for the first, 80 to 82 °C for the second.

First: CC(=O)c1ccc2nccc(OS(=O)(=O)C(F)(F)F)c2c1
Second: CC(=O)NNC(=O)c1cc2cccc(NS(=O)(=O)c3cccs3)c2[nH]1
The melting point of the first is lower: 94 °C for the first, 254 to 256 °C for the second.

First: COc1ccc(C(=O)NNC(C)=O)cc1
Second: COc1ccc(OC)c(NC(=O)c2cc(OC)ccc2OC)c1
The melting point of the first is higher: 146 to 148 °C for the first, 121 to 123 °C for the second.

First: O=C(O)C1Oc2ccc(Cl)cc2C(C2CCCCC2)(C2CCCCC2)O1 (configuration not stated)
Second: O=C(O)C1CSC(C2CCCCC2)=NN1C(=O)CCS (configuration not stated)
The melting point of the first is higher: 208 °C for the first, 95 to 97 °C for the second.

First: CC(COc1ccc(CC2SC(=O)N(C(c3ccccc3)(c3ccccc3)c3ccccc3)C2=O)cc1)NC(=O)OC(C)(C)C (configuration not stated)
Second: CCOc1ccc2c(c1)n(-c1ccccc1Cl)c(=O)n2Cc1ccc(NC(=O)N(CC)CC)cc1OC
The melting point of the first is higher: 153 to 157 °C for the first, 150 °C for the second.

First: O=C1CC[C@H](CC(c2ccc(S(=O)(=O)C3CC3)cc2)c2nc(F)c(C(=O)C3CCC3)[nH]2)C1 (some centres not stated)
Second: O=C1C(=O)c2ccccc2C2=C1SCC1(CCN(CC3CC3)CC1)O2
The melting point of the first is lower: 85 to 88 °C for the first, 161 to 164 °C for the second.

First: Cc1cccc2c(=O)c3cccc(CBr)c3oc12
Second: CCc1oc2ccccc2c1C(=O)c1ccc(OCCO)cc1
The melting point of the first is higher: 171 to 172 °C for the first, 78 to 83 °C for the second.

First: COc1cc2c(cc1C)C1(CO2)C(=O)N(Cc2ccccn2)c2ccccc21 (configuration not stated)
Second: CCOC(=O)N1CCN2c3ccccc3Cc3ccccc3C2C1 (configuration not stated)
The melting point of the first is higher: 142 to 144 °C for the first, 108 to 110 °C for the second.

First: N#Cc1c(N2CCc3ccccc3CC2)nc(N)[nH]c1=O
Second: COc1ccccc1N1CCN(CCn2c(=O)c3cscc3n(C)c2=O)CC1
The melting point of the first is higher: > 200 °C for the first, 167 to 168 °C for the second.

Compared with `CC(C)(C)OC(=O)N1Cc2c(Cl)sc(Cl)c2C1`, `CC(C)(C)OC(=O)N1CC(=NO)C2(CC2)C1` is higher in melting point: 112 to 114 °C for the first, 117 to 119 °C for the second.

First: CCOC(=O)c1sc(N(C)C)c2c1CCc1cnn(C)c1-2
Second: CCOC(=O)C1=C(NC(=O)Nc2ccc(Cl)c(C(=O)OCC)c2)CCCC1
The melting point of the first is lower: 118 to 119 °C for the first, 119 to 122 °C for the second.

Compared with `O=C(O)CSCCCCCNS(=O)(=O)c1ccc(Cl)cc1`, `Cc1ccc(C(=O)c2sc(Nc3ccc(S(N)(=O)=O)cc3)nc2N)c(C)c1` is higher in melting point: 93 to 94 °C for the first, 242 to 244 °C for the second.

First: C=C1C(=C)C2OC1C1=C2Cc2c(OC)ccc(OC)c2C1
Second: CN1CCN(c2cccc3c2C[C@H](NC(=O)c2ccc(-n4cccc4)cc2)CC3)CC1
The melting point of the first is lower: 177 to 178 °C for the first, 245 to 247 °C for the second.

Compared with `CN1CCCc2ccc(NC(=O)c3cc4cc(F)ccc4n3Cc3cccc(F)c3)cc21`, `COC(=O)COc1ccc(OCC2CCN(c3ccncc3)CC2)cc1` is lower in melting point: 159 to 160 °C for the first, 127 to 129 °C for the second.

Compared with `Nc1nnc(CCCCCBr)s1`, `CCCCCCCCCCCc1nc2c(O)c(NC(C)=O)cc(Cl)c2cc1CCCCCCCCCC` is lower in melting point: 128 to 130 °C for the first, 120 to 121 °C for the second.

First: Oc1ccc(-c2cc3cc(O)cc(-c4nnco4)c3o2)cc1
Second: NC(Cc1coc2c(Cl)cccc12)=NO
The melting point of the first is higher: 260 to 266 °C for the first, 142 to 145 °C for the second.

First: COC(C)(C)C(C#N)=NO
Second: Cc1ccc(C(C)(C)C)cc1S(=O)(=O)Cl
The melting point of the first is lower: 102 to 104 °C for the first, 137 to 138 °C for the second.

Compared with `COC(=O)C1=C(S(=O)(=O)NC(=O)Nc2nc(OC)nc(OC)n2)CCC1`, `CC(C)(C)c1cc(SCCC(=O)NNC=O)cc(C(C)(C)C)c1O` is lower in melting point: 168 to 169 °C for the first, 158 to 159 °C for the second.

`Cc1nc(C)c(Cn2nnnc2-c2cccc(Cl)c2Cl)s1` and `CCCc1nc2cncc(C)c2[nH]1` cannot be ordered by melting point: 174 to 175 °C for the first, 173 to 175 °C for the second.

First: O=C(CF)Nc1ccccc1
Second: Cc1cc(C)cc(C(=O)NC(C(N)=O)n2cccn2)c1 (configuration not stated)
The melting point of the first is lower: 77 to 78.5 °C for the first, 193 to 195 °C for the second.
